The source of these data is ChEMBL document CHEMBL5131485, “Synthesis and biological activity evaluation of novel 2,6,9-trisubstituted purine conjugates as potential protein kinases inhibitors” (Bioorg Med Chem Lett, 2022).

The source made the active and inactive calls. No cut-off for these calls is given here.

By IC50 is commonly meant the concentration that gives 50% inhibition. A higher IC50 goes with a need for much substance. As a reminder, the GI50 is the concentration at which growth is held to half of that of the control. A lower GI50 goes with more potent growth inhibition.

Test [1] addresses Receptor-type tyrosine-protein kinase FLT3 (Homo sapiens, UniProt P36888, ITD).
Description: Inhibition of FLT3 ITD mutant (unknown origin)
Test [2] relates to MV4-11. In kind it is functional, cell-based. The note with it: Homo sapiens, dose 1-125 nM, time 24.0 hrs.
For test [3], the target named is Platelet-derived growth factor receptor alpha (Homo sapiens, UniProt P16234).
Description: Inhibition of PDGFRalpha (unknown origin)
Test [4] concerns the target Cyclin-dependent kinase 2 (Homo sapiens, UniProt P24941).
Description: Inhibition of CDK2 (unknown origin)
Test [5] deals with Receptor-type tyrosine-protein kinase FLT3 (Homo sapiens), P36888 [UNDEFINED MUTATION]. The note with it: MV4-11, dose 5-25 nM, time 1.0 hrs.
For test [6] the test system is unchanged. The note with it: MV4-11, dose 5-25 nM, time 1.0 hrs. This is another data set of the same source.
For test [7] the test system is unchanged. The note with it: MV4-11, dose 5-25 nM, time 1.0 hrs. This is another data set of the same source.
Test [8] deals with MV4-11. The test is described as follows: cells. The note with it: Homo sapiens.
Description: Antiproliferative activity against human MV4-11 cells expressing FLT3-ITD mutant
Another test relates to EOL1. The test is described as follows: cells. The note with it: Homo sapiens.
A further test relates to Kasumi 1. Put plainly: cells. The note with it: Homo sapiens.
The test system of the next test is K562. The test is described as follows: cells. The note with it: Homo sapiens.

Chain of Receptor-type tyrosine-protein kinase FLT3 (Homo sapiens), P36888 [UNDEFINED MUTATION] (P36888 whole entry, looked up, change not shown): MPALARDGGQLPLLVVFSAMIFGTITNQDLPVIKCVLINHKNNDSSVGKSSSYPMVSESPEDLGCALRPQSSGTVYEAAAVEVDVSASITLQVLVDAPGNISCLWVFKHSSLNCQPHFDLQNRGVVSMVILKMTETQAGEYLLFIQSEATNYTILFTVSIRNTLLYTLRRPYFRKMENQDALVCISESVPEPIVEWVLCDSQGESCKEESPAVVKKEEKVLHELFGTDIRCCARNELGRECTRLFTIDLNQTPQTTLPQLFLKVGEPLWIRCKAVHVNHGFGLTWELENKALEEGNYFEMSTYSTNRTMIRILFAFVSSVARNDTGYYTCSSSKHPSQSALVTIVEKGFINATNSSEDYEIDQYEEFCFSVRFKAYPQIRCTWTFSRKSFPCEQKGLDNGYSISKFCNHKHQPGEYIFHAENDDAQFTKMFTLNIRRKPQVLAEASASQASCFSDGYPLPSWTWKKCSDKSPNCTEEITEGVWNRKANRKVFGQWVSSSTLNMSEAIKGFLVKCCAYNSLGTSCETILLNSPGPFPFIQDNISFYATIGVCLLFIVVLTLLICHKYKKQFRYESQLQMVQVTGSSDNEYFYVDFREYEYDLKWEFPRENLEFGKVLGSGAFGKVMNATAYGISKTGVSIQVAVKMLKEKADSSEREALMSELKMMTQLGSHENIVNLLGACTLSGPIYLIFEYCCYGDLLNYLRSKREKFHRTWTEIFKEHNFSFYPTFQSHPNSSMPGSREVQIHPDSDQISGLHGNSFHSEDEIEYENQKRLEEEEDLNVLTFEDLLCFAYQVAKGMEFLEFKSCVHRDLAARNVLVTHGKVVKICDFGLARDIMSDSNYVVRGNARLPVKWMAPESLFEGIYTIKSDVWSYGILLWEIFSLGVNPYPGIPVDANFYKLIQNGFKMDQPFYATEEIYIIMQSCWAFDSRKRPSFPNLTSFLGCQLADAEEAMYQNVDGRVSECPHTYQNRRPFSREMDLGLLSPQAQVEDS
Chain of Receptor-type tyrosine-protein kinase FLT3 (P36888 whole entry, looked up, change not shown): as above
Chain of Platelet-derived growth factor receptor alpha (P16234 whole entry): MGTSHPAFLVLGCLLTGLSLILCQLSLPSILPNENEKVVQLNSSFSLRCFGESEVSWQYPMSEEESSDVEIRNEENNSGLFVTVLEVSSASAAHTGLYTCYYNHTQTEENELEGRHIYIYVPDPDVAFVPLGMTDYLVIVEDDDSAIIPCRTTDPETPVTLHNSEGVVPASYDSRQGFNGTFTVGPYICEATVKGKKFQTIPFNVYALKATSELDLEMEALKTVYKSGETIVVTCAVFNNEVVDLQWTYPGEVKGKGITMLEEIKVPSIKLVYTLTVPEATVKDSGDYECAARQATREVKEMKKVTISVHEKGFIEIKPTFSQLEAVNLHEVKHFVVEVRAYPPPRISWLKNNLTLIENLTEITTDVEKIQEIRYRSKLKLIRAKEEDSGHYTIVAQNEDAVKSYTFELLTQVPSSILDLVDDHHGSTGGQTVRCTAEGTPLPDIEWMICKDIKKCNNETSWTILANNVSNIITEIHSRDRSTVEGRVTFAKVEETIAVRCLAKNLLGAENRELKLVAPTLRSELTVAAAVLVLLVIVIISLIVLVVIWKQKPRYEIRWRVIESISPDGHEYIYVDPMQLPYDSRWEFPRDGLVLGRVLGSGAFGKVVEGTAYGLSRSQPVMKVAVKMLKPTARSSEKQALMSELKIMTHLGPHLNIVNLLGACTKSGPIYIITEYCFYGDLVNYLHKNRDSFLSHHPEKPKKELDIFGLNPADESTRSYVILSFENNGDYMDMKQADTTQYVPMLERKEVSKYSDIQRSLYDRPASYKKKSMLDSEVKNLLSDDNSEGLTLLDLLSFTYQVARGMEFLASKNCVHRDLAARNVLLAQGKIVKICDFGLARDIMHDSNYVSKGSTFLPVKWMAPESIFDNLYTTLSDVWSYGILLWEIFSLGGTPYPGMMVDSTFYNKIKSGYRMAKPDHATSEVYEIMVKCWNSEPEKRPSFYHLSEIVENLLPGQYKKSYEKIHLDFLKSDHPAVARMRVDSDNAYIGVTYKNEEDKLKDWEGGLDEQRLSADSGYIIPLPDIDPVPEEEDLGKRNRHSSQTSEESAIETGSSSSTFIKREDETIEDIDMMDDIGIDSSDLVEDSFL
Description for EOL1: Antiproliferative activity against human EOL1 cells expressing IP1L1-PDGFRA fusion protein
Description for K562: Antiproliferative activity against human K562 cells
Description for Kasumi 1: Antiproliferative activity against human Kasumi 1 cells harboring N822K KIT mutant

In the case of `N[C@H]1CC[C@H](Nc2nc(Nc3ccccc3)c3ncn(C4CCCC4)c3n2)CC1`, the IC50 in test [1] worked out at 0.005 µM; in test [3], 0.196 µM; in [4], 0.007 µM. In the test on MV4-11 [2], the outcome was Active. The inhibition entry in [5], in test [6] and in test [7] was “Active” each time. Also, the GI50 in the test with MV4-11 [8] came out at 0.023 µM; in the test on EOL1 it was 0.041 µM; in the test with Kasumi 1 it was 0.278 µM; in the test on K562, 2.45 µM.
Turning to `NCCCCNC(=O)c1ccc(CNc2nc(N[C@H]3CC[C@H](N)CC3)nc3c2ncn3C2CCCC2)cc1`, the IC50 in [1] was 1.65 µM; in test [3], over 20 µM; in test [4], 0.027 µM. The inhibition result in [5] is “Active”. For the same compound, the concentration for 50% growth inhibition (GI50) was 0.577 µM in the test on MV4-11 [8], 0.676 µM with EOL1, 2.56 µM with Kasumi 1 and 8.26 µM in the test with K562.
Take `N[C@H]1CC[C@H](Nc2nc(NCc3ccccc3)c3ncn(C4CCCC4)c3n2)CC1`: the IC50 in [1] is 2.51 µM; in test [3], over 20 µM. Also, the inhibition result in test [5] is “Active”. The GI50 in the test with MV4-11 [8] was 1.14 µM; in the test with EOL1 it was 1.17 µM; with Kasumi 1, 0.988 µM; in the test with K562, 4.22 µM.
Regarding `NCCCNCCCCNCCCNc1ccc(Nc2nc(N[C@H]3CC[C@H](N)CC3)nc3c2ncn3C2CCCC2)cc1`, the IC50 in [1] was 0.01 µM; in test [3], 0.203 µM; in test [4], 0.031 µM. Besides, the inhibition entry in test [5], in test [6] and in test [7] was “Active” each time. Further, the GI50 in the test on MV4-11 [8] worked out at 0.004 µM; in the test with EOL1 it was 0.011 µM; in the test with Kasumi 1, 0.647 µM; in the test with K562, 0.896 µM.
In the case of `NCCCCNc1ccc(Nc2nc(N[C@H]3CC[C@H](N)CC3)nc3c2ncn3C2CCCC2)cc1`, the IC50 was found to be 0.004 µM in test [1], 0.153 µM in test [3] and 0.017 µM in test [4]. In the test with MV4-11 [2], the outcome was Active. In addition, the inhibition entry in test [5], in [6] and in [7] was “Active” in each case. Moreover, the concentration for 50% growth inhibition (GI50) in the test on MV4-11 [8] came to 0.095 µM; in the test on EOL1, 0.171 µM; in the test with Kasumi 1, 2.74 µM; with K562, 6.29 µM.
With `NCCCNCCCCNC(=O)c1ccc(Nc2nc(N[C@H]3CC[C@H](N)CC3)nc3c2ncn3C2CCCC2)cc1`, the IC50 in test [1] stood at 0.004 µM; in test [3], 0.041 µM; in test [4], 0.019 µM. Further, in the test on MV4-11 [2], the result was Active. Further, the inhibition entry in test [5], in test [6] and in test [7] was “Active” each time. Moreover, the GI50 in the test with MV4-11 [8] turned out to be 0.025 µM; in the test on EOL1, 0.017 µM; in the test on Kasumi 1 it was 2.91 µM; with K562, 7.37 µM.
Regarding `NC(=O)c1ccc(Nc2nc(N[C@H]3CC[C@H](N)CC3)nc3c2ncn3C2CCCC2)cc1`, the half-maximal inhibitory concentration (IC50) in [1] worked out at 0.002 µM; in test [3], 0.017 µM; in test [4] it was 0.004 µM. Besides, the outcome in the test with MV4-11 [2] was Active. In addition, the inhibition result in test [5], in test [6] and in test [7] was “Active” in each case. The GI50 with MV4-11 [8] was determined as 0.039 µM; with EOL1, 0.04 µM; in the test on Kasumi 1, 4.18 µM; in the test on K562, 6.13 µM.
Turning to `NCCCCNC(=O)c1ccc(Nc2nc(N[C@H]3CC[C@H](N)CC3)nc3c2ncn3C2CCCC2)cc1`, the half-maximal inhibitory concentration (IC50) is 0.003 µM in test [1], 0.036 µM in [3] and 0.02 µM in [4]. In addition, the outcome in the test with MV4-11 [2] was Active. Further, the inhibition result in [5], in test [6] and in [7] was “Active” in each case. Moreover, the concentration for 50% growth inhibition (GI50) in the test on MV4-11 [8] was determined as 0.023 µM; in the test on EOL1 it was 0.015 µM; with Kasumi 1 it was 4.05 µM; with K562, 10.8 µM.
With `NCCCNCCCCNc1ccc(Nc2nc(N[C@H]3CC[C@H](N)CC3)nc3c2ncn3C2CCCC2)cc1`, the concentration for half-maximal inhibition (IC50) amounted to 0.006 µM in test [1], 0.219 µM in test [3] and 0.021 µM in test [4]. Also, in the test with MV4-11 [2], the result was Active. The inhibition entry in [5], in test [6] and in [7] was “Active” in each case. For the same compound, the GI50 in the test with MV4-11 [8] turned out to be 0.052 µM; in the test on EOL1 it was 0.06 µM; with Kasumi 1, 1.85 µM; in the test with K562 it was 2.79 µM.
`NCCCNCCCCNC(=O)c1ccc(CNc2nc(N[C@H]3CC[C@H](N)CC3)nc3c2ncn3C2CCCC2)cc1`: the results for the IC50 in test [1], in test [3] and in test [4] were 1.31 µM, 19.8 µM and 0.025 µM, respectively. Also, the inhibition entry in [5] is “Active”. The GI50 in the test on MV4-11 [8] turned out to be 0.602 µM; with EOL1, 0.799 µM; with Kasumi 1 it was 1.92 µM; in the test with K562 it was 7.19 µM.
